Results published in patent US10167262B2, “Herbicidal substituted 3-arylpyrazoles” (FMC CORPORATION, priority 2014, dated 2019).

Key:
Test in all cases: Test E pre-/postemergence greenhouse test, plant response rating 0-100
Format in all cases: in vivo
[1] = tested on: Brazilian crabgrass (Digitaria horizontalis); settings: Postemergence, scale 0 to 100
Excerpt: (§1) Seeds of plant species selected from corn (Zea mays), soybean (Glycine max), velvetleaf (Abutilon theophrasti), lambsquarters (Chenopodium album), wild poinsettia (Euphorbia heterophylla), palmer pigweed (Amaranthus palmeri), waterhemp (common waterhemp, Amaranthus rudis), surinam grass (Brachiaria decumbens), large (Lg) crabgrass (Digitaria sanguinalis), Brazilian crabgrass (Digitaria horizontalis), fall panicum (Panicum dichotomiflorum), giant foxtail (Setaria faberii), green foxtail (Setaria viridis), goosegrass (Eleusine indica), johnsongrass (Sorghum halepense), ragweed (common ragweed, Ambrosia elatior), barnyardgrass (Echinochloa crus-galli), sandbur (southern sandbur, Cenchrus echinatus), arrowleaf sida (Sida rhombifolia), Italian ryegrass (Lolium multiflorum), dayflower (Virginia (VA) dayflower, Commelina virginica), field bindweed (Convolvulus arvensis), morningglory (Ipomoea coccinea), nightshade (eastern black nightshade, Solanum ptycanthum), kochia (Kochia scoparia), yellow nutsedge (Cyperus esculentus), smartweed (ladysthumb smartweed, Polygonum persicaria), cocklebur (common cocklebur, Xanthium strumarium), and hairy beggarticks (Bidens pilosa), were planted into a silt loam soil and treated preemergence with test chemicals formulated in a non-phytotoxic solvent mixture which included a surfactant.
(§2) At the same time, plants from these crop and weed species and also waterhemp_RES1, (ALS & Triazine resistant common waterhemp, Amaranthus rudis), and waterhemp_RES2, (ALS & HPPD resistant common waterhemp, Amaranthus rudis) were planted in pots containing Redi-Earth® planting medium (Scotts Company, 14111 Scottslawn Road, Marysville, Ohio 43041) comprising spaghnum peat moss, vermiculite, wetting agent and starter nutrients were treated with postemergence applications of test chemicals formulated in the same manner. Plants ranged in height from 2 to 18 cm for postemergence treatments (1- to 4-leaf stage).
(§3) Treated plants and controls were maintained in a greenhouse for 14 to 21 days, after which time all species were compared to controls and visually evaluated. Plant response ratings, summarized in Table E, are based on a scale of 0 to 100 where 0 is no effect and 100 is complete control. A dash (-) response means no test result.

[2] = tested on: Italian ryegrass (Lolium multiflorum); settings: Postemergence, scale 0 to 100
Excerpt: as §1, §2, §3

[3] = tested on: arrowleaf sida (Sida rhombifolia); settings: Postemergence
Excerpt: as §1, §2, §3

[4] = tested on: barnyardgrass (Echinochloa crus-galli); settings: Postemergence, scale 0 to 100
Excerpt: as §1, §2, §3

corn (Zea mays) = settings: Postemergence, scale 0 to 100
Excerpt: as §1, §2, §3

[5] = tested on: dayflower (Virginia (VA) dayflower, Commelina virginica); settings: Postemergence, scale 0 to 100
Excerpt: as §1, §2, §3

[6] = tested on: field bindweed (Convolvulus arvensis); settings: Postemergence, scale 0 to 100
Excerpt: as §1, §2, §3

[7] = tested on: hairy beggarticks (Bidens pilosa); settings: Bidens pilosa, post-emergence, Postemergence, scale 0 to 100
Excerpt: as §1, §2, §3

[8] = tested on: palmer pigweed (Amaranthus palmeri); settings: Postemergence, scale 0 to 100
Excerpt: as §1, §2, §3

[9] = tested on: sandbur (southern sandbur, Cenchrus echinatus); settings: Postemergence, scale 0 to 100
Excerpt: as §1, §2, §3

[10] = tested on: waterhemp (common waterhemp, Amaranthus rudis); settings: Postemergence, scale 0 to 100
Excerpt: as §1, §2, §3

[11] = tested on: wild poinsettia (Euphorbia heterophylla); settings: Postemergence, scale 0 to 100
Excerpt: as §1, §2, §3

COC(OC)(c1ccccc1)c1c[nH]nc1-c1cc(Cl)cc(Cl)c1 [Compound 13, 3-(3,5-dichlorophenyl)-4-(dimethoxyphenylmethyl)-1H-pyrazole] showed a pest or weed control at 125 g/ha ([1]; Digitaria horizontalis, post-emergence, 125 g ai/ha, read-out: Plant response rating, Crabgrass, Brazil) of 0%, a pest or weed control at 500 g/ha ([1]; Digitaria horizontalis, post-emergence, 500 g ai/ha, read-out: Plant response rating, Crabgrass, Brazil) of 0% and a pest or weed control at 125 g/ha ([2]; Lolium multiflorum, post-emergence, 125 g ai/ha) of 0%. The pest or weed control at 500 g/ha ([2]; Lolium multiflorum, post-emergence, 500 g ai/ha) was 0%, the pest or weed control at 125 g/ha ([3]; Sida rhombifolia, post-emergence, 125 g ai/ha, scale 0 to 100) was 80% and the pest or weed control at 500 g/ha ([3]; Sida rhombifolia, post-emergence, 500 g ai/ha, scale 0 to 100 (0 no effect, 100 complete control)) was 90%. For the same compound, the pest or weed control at 125 g/ha ([4]; Echinochloa crus-galli, post-emergence, 125 g ai/ha) was 15%, the pest or weed control at 500 g/ha ([4]; Echinochloa crus-galli, post-emergence, 500 g ai/ha) was 40% and the Corn plant response rating (crop injury, 0 = no effect, 100 = complete kill) at 125 g/ha (corn (Zea mays); Zea mays, post-emergence, 125 g ai/ha) was 0%. The Corn plant response rating (crop injury, 0 = no effect, 100 = complete kill) at 500 g/ha (corn (Zea mays); Zea mays, post-emergence, 500 g ai/ha) was 0%, the pest or weed control at 125 g/ha ([5]; Commelina virginica, post-emergence, 125 g ai/ha) was 10% and the pest or weed control at 500 g/ha ([5]; Commelina virginica, post-emergence, 500 g ai/ha) was 10%. The pest or weed control at 125 g/ha ([6]; Convolvulus arvensis, post-emergence, 125 g ai/ha) was 0%, the pest or weed control at 500 g/ha ([6]; Convolvulus arvensis, post-emergence, 500 g ai/ha) was 10% and the pest or weed control at 125 g/ha ([7]; 125 g ai/ha) was 60%. It also gave a pest or weed control at 500 g/ha ([7]; 500 g ai/ha) of 90%, a pest or weed control at 125 g/ha ([8]; Amaranthus palmeri, post-emergence, 125 g ai/ha) of 85% and a pest or weed control at 500 g/ha ([8]; Amaranthus palmeri, post-emergence, 500 g ai/ha) of 95%. The pest or weed control at 125 g/ha ([9]; Cenchrus echinatus, post-emergence, 125 g ai/ha) was 0%, the pest or weed control at 500 g/ha ([9]; Cenchrus echinatus, post-emergence, 500 g ai/ha) was 0% and the pest or weed control at 125 g/ha ([10]; Amaranthus tuberculatus, post-emergence, 125 g ai/ha) was 90%. The pest or weed control at 500 g/ha ([10]; Amaranthus tuberculatus, post-emergence, 500 g ai/ha) was 95%, the pest or weed control at 125 g/ha ([11]; Euphorbia heterophylla, post-emergence, 125 g ai/ha, read-out: Plant response rating, Poinsettia, Wild) was 0% and the pest or weed control at 500 g/ha ([11]; Euphorbia heterophylla, post-emergence, 500 g ai/ha, read-out: Plant response rating, Poinsettia, Wild) was 0%.
C=CCn1cc(C(=O)c2ccccc2)c(-c2cc(Cl)cc(Cl)c2)n1 [Compound 60] was tested, and the “Plant response rating, Crabgrass, Brazil” value ([1]; 16 g ai/ha) was 0, the “Plant response rating, Crabgrass, Brazil” value ([1]; 31 g ai/ha) was 0 and the “Plant response rating, Crabgrass, Brazil” value ([1]; 62 g ai/ha) was 0. For the same compound, the “Plant response rating, Crabgrass, Brazil” value ([1]; 125 g ai/ha) was 0, the “Plant response rating, Crabgrass, Brazil” value ([1]; 250 g ai/ha) was 0 and the “Plant response rating, Ryegrass, Italian” value ([2]; 31 g ai/ha) was 0. The “Plant response rating, Ryegrass, Italian” value ([2]; 62 g ai/ha) was 0, the “Plant response rating, Ryegrass, Italian” value ([2]; 125 g ai/ha) was 0 and the “Plant response rating, Ryegrass, Italian” value ([2]; 250 g ai/ha) was 0. For the same compound, the “Plant response rating, Arrowleaf Sida” value ([3]; 16 g ai/ha, scale 0 to 100) was 25, the “Plant response rating, Arrowleaf Sida” value ([3]; 31 g ai/ha, scale 0 to 100) was 35 and the “Plant response rating, Arrowleaf Sida” value ([3]; 62 g ai/ha, scale 0 to 100) was 35. For the same compound, the “Plant response rating, Arrowleaf Sida” value ([3]; 125 g ai/ha, scale 0 to 100) was 45, the “Plant response rating, Arrowleaf Sida” value ([3]; 250 g ai/ha, scale 0 to 100) was 45 and the “Plant response rating, Barnyardgrass” value ([4]; 16 g ai/ha) was 0. The “Plant response rating, Barnyardgrass” value ([4]; 31 g ai/ha) was 0, the “Plant response rating, Barnyardgrass” value ([4]; 62 g ai/ha) was 0 and the “Plant response rating, Barnyardgrass” value ([4]; 125 g ai/ha) was 0. For the same compound, the “Plant response rating, Barnyardgrass” value ([4]; 250 g ai/ha) was 0, the “Plant response rating, Corn” value (corn (Zea mays); 16 g ai/ha) was 0 and the “Plant response rating, Corn” value (corn (Zea mays); 31 g ai/ha) was 0. The “Plant response rating, Corn” value (corn (Zea mays); 62 g ai/ha) was 0, the “Plant response rating, Corn” value (corn (Zea mays); 125 g ai/ha) was 0 and the “Plant response rating, Corn” value (corn (Zea mays); 250 g ai/ha) was 0. For the same compound, the “Plant response rating, Dayflower, VA” value ([5]; 16 g ai/ha) was 0, the “Plant response rating, Dayflower, VA” value ([5]; 31 g ai/ha) was 0 and the “Plant response rating, Dayflower, VA” value ([5]; 62 g ai/ha) was 0. For the same compound, the “Plant response rating, Dayflower, VA” value ([5]; 125 g ai/ha) was 0, the “Plant response rating, Dayflower, VA” value ([5]; 250 g ai/ha) was 0 and the “Plant response rating, Field Bindweed” value ([6]; 16 g ai/ha) was 0. For the same compound, the “Plant response rating, Field Bindweed” value ([6]; 31 g ai/ha) was 0, the “Plant response rating, Field Bindweed” value ([6]; 62 g ai/ha) was 0 and the “Plant response rating, Field Bindweed” value ([6]; 125 g ai/ha) was 0. For the same compound, the “Plant response rating, Field Bindweed” value ([6]; 250 g ai/ha) was 0, the “Plant response rating, Pigweed, Palmer” value ([8]; 62 g ai/ha) was 30 and the “Plant response rating, Pigweed, Palmer” value ([8]; 125 g ai/ha) was 35. The “Plant response rating, Pigweed, Palmer” value ([8]; 250 g ai/ha) was 35, the “Plant response rating, Sandbur” value ([9]; 31 g ai/ha) was 0 and the “Plant response rating, Sandbur” value ([9]; 62 g ai/ha) was 0. For the same compound, the “Plant response rating, Sandbur” value ([9]; 125 g ai/ha) was 0, the “Plant response rating, Sandbur” value ([9]; 250 g ai/ha) was 0 and the “Plant response rating, Waterhemp” value ([10]; 31 g ai/ha) was 20. For the same compound, the “Plant response rating, Waterhemp” value ([10]; 62 g ai/ha) was 25, the “Plant response rating, Waterhemp” value ([10]; 125 g ai/ha) was 25 and the “Plant response rating, Waterhemp” value ([10]; 250 g ai/ha) was 30. For the same compound, the “Plant response rating, Poinsettia, Wild” value ([11]; 31 g ai/ha) was 0, the “Plant response rating, Poinsettia, Wild” value ([11]; 62 g ai/ha) was 0 and the “Plant response rating, Poinsettia, Wild” value ([11]; 125 g ai/ha) was 0. The “Plant response rating, Poinsettia, Wild” value ([11]; 250 g ai/ha) was 0.
